{"source": "patent US12233060B2", "about": "“Inhibitors of Ataxia-Telangiectasia Mutated and Rad3-related protein kinase (ATR) for use in methods of treating cancer” (THE INSTITUTE OF CANCER RESEARCH: ROYAL CANCER HOSPITAL, priority 2016, dated 2025)", "key": {"[1]": {"tested_on": "HCT116 ARID1A+/+ xenografts", "assay": "In vivo efficacy, HCT116 ARID1A+/+ subcutaneous xenografts", "set-up": "species or system mice", "method": "(§1) FIG. 3. In vivo ARID1A/ATR synthetic lethality. A. Schematic of VX-970 therapy experiment in mice bearing established HCT116 ARID1A^+/+ and ARID1A^−/− xenografts. Cells were inoculated subcutaneously into nude mice and tumors allowed to establish for 10 days. Mice were then randomized to treatment regimens of either VX-970 (60 mg/kg, 4× weekly by oral gavage) or vehicle. Mice were then treated for a subsequent 40 days. Tumor volume was monitored twice weekly. B. Relative tumor volume plot from (A) showing efficacy of VX-970 and selectivity for ARID1A^−/− xenografts* p=0.024, ANOVA. C. Schematic of tumor incidence experiment in mice with non-established HCT116 ARID1A^+/+ and ARID1A^−/− xenografts. Mice were inoculated with cells as before, randomized and then treated with VX-970. VX-970 or vehicle treatment was initiated on the day of cell implantation. Tumor volume was monitored twice weekly and overall tumour incidence was assessed 40 days later. D. Bar chart of incidence 40 days after implantation of HCT116 ARID1A^+/+ and ARID1A^−/− cells. Each group contained 15 animals and fractions above bars indicate the number of animals in which a measurable xenograft formed. *p=0.027 Fisher's exact test. E and F. Tumor growth in experiment described in (C). *p=0.015 ANOVA. G. VX-970 dose response curves from TOV21G (ARID1A mutant) and RMG1 (ARID1A wildtype) cells. Cells were exposed to VX-970 for 5 days. […] PARP-1, cleaved PARP-1 (85 kDa fragment) and tubulin were detected by western blot. […] Caspase3/7 activity was assessed using Caspase-Glo and total cellular viability was estimated using CellTitre-Glo. Luminescence ratios for Caspase-Glo (i.e. apoptotic cells) and CellTitre-Glo (ie viable cells) was determined for each dose and normalized to DMSO treated samples. *Student's t-test, p<0.05. […]\nIn vivo efficacy studies were performed using HCT116 […], HCT116 ARID1A^−/− and TOV21G cells injected subcutaneously in the flank of female CD-1 Nude mice. […] Tumours were measured manually by calliper trice weekly and animals were sacrificed when tumours reached >15 mm in any direction."}, "SYO1 cells": {"tested_on": "SYO1 cells", "assay": "FACS cell cycle and Caspase Glo apoptosis in SYO1 cells", "assay_type": "cell-based, human", "method": "FIG. 10. ATR inhibitors elicit replication fork stress in SS tumour cells. […] Error bars represent SEM from triplicate experiments. p values were derived from Student's t tests. B. Western blot illustrating PARP1 cleavage in SYO1 cells exposed to VX970 for 24 hours. C. Western blot illustrating H2AX phosphorylation (γH2AX) in SYO1 cells exposed to VX970 (0.1 μM). D. Confocal microspcopy images illustrating H2AX phosphorylation in SYO1 cells exposed to VX970 (0.1 μM, 24 hours). E. Bar chart depicting data from (D). Error bars represent SEM from 100 images. p values were derived from Student's t tests. F. Replication fork speeds in SYO1 cells exposed to 0.1 μM VX970 for two hours. p value was derived from a Student's t test. G. Replication fork speeds in HCT116 cells exposed to 0.1 μM VX970 for two hours in the presence and absence of ectopic expression of a SS18-SSX1 fusion protein. p values were derived from Student's t tests. Expression of SS18-SSX1 or exposure to VX970 reduced fork speed. Combined SS18-SSX1 expression and VX970 exposure enhanced the reduction in fork speed. H and I. FACS plots from SYO1 cells exposed to VX970."}, "[2]": {"tested_on": "HCT116 ARID1A+/+ and ARID1A−/− cells", "assay": "PARP cleavage western blot", "assay_type": "cell-based, human", "conditions": "24 hours exposure; camptothecin 1 uM positive control", "method": "as §1, with “Mice were inoculated with cells as before, randomized and then treated with VX-970. VX-970 or vehicle treatment was initiated on the day of cell implantation.” left out, “later.” for “later. D. Bar chart of incidence 40 days after implantation of HCT116 ARID1A^+/+ and ARID1A^−/− cells. Each group contained 15 animals and fractions above bars indicate the number of animals in which a measurable xenograft formed. *p=0.027 Fisher's exact test. E and F. Tumor growth in experiment described in (C). *p=0.015 ANOVA. G. VX-970 dose response curves from TOV21G (ARID1A mutant) and RMG1 (ARID1A wildtype) cells. Cells were exposed to VX-970 for 5 days.”\nFIG. 5. […] The percentage of cells in G2/M was measured by FACS following PI staining. […] A minimum of 50 anaphases were scored in 3 biological replicate experiments. *p=0.023, Student's t-test. […]"}}}
{"smiles": "CNCc1ccc(-c2cc(-c3nc(-c4ccc(S(=O)(=O)C(C)C)cc4)cnc3N)on2)cc1", "note": "[VX-970, 5-[4-(Isopropylsulfonyl)phenyl]-3-(3-{4-[(methylamino)methyl]phenyl}-1,2-oxazol-5-yl)-2-pyrazinamine]", "values": [{"measurement": "growth of established ARID1A+/+ xenografts", "setting": "[1]; 60 mg/kg, 4x weekly oral gavage, 40 days", "result": "no effect"}, {"measurement": "growth of ARID1A+/+ xenografts under continued treatment", "setting": "[1]; non-established xenograft experiment, p=0.63 ANOVA", "result": "did not impair"}, {"measurement": "incidence of ARID1A+/+ xenografts", "setting": "[1]; treatment from day of cell implantation, incidence 40 days later, 15 animals per group", "result": 80, "unit": "%"}, {"measurement": "sub G1 fraction", "setting": "SYO1 cells; 0.1 μM", "result": "increase in the sub G1 fraction"}, {"measurement": "cell cycle, S phase", "setting": "SYO1 cells; SS tumour cells exposed to VX970 (0.1 μM)", "result": "arrest in S phase"}, {"measurement": "apoptosis (Caspase Glo)", "setting": "SYO1 cells; SYO1 cells", "result": "apoptosis, estimated by Caspase Glo, caused by exposure"}, {"measurement": "PARP-cleavage, ARID1A−/− vs ARID1A+/+", "setting": "[2]", "result": "far higher levels of PARP-cleavage"}]}
